AC50 data for 32 compounds are collected here from patent publication US20230104936A1, “TRPML MODULATORS” (Casma Therapeutics, Inc., priority 2019, published 2023).

The term AC50 denotes the concentration at which the activity in the assay is half-maximal.

Molecules are shown by their SMILES. Where only a bound is given, the exact number is not on record here.

One experiment deals with TFEB. As to the kind of experiment: TFEB nuclear translocation assay, HeLa wt cells. Format: cell-based. The following applies: 2 hrs compound treatment, Table 1 does not say HeLa wt or TRPML1 KO. The gist of the method:
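TFEB translocation into the nucleus of HeLa wt cells is scored by high-content immunofluorescence after 2 hrs of compound treatment at 37° C, reported as AC50.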
In the case of `CN(C)S(=O)(=O)c1ccc(S(=O)(=O)Nc2ccccc2N2C3CC2CN(c2ccc(Cl)cc2F)C3)cc1` [Compound A-28, N4-{2-[3-(4-chloro-2-fluorophenyl)-3,6-diazabicyclo[3.1.1]heptan-6-yl]phenyl}-N1,N1-dimethylbenzene-1,4-disulfonamide], the AC50 was no more than 2 µM.

The same experiment, now with this note: Homo sapiens, HeLa, 2 h, 2 hrs compound treatment, Table 1 does not say HeLa wt or TRPML1 KO.
In turn, `CN(C)S(=O)(=O)c1ccc(S(=O)(=O)Nc2ccccc2N2CCN(c3ccc(Cl)cc3F)CC2)cc1` [Compound A-12, N4-{2-[4-(4-chloro-2-fluorophenyl)piperazin-1-yl]phenyl}-N1,N1-dimethylbenzene-1,4-disulfonamide] registered an AC50 of no more than 2 µM.
Still for that read-out and setting: then `O=S(=O)(Nc1ccccc1N1CCN(c2ccc(Cl)cc2F)CC1)C1CCOCC1` [Compound A-14, N-{2-[4-(4-chloro-2-fluorophenyl)piperazin-1-yl]phenyl}oxane-4-sulfonamide], with 2.01 to 8 µM.
Still for that read-out and setting: the same measure for `Cn1nccc1S(=O)(=O)Nc1ccccc1N1CCN(c2ccc(Cl)cc2F)CC1` [Compound A-15, N-{2-[4-(4-chloro-2-fluorophenyl)piperazin-1-yl]phenyl}-1-methyl-1H-pyrazole-5-sulfonamide]: no less than 10 µM; for `CN1CCC(S(=O)(=O)Nc2ccccc2N2CCN(c3ccc(Cl)cc3F)CC2)CC1` [Compound A-16, N-{2-[4-(4-chloro-2-fluorophenyl)piperazin-1-yl]phenyl}-1-methylpiperidine-4-sulfonamide]: 2.01 to 8 µM.
Same read-out and setting: the same measure for `CC(=O)N1CCC(S(=O)(=O)Nc2ccccc2N2CCN(c3ccc(Cl)cc3F)CC2)CC1` [Compound A-17, 1-acetyl-N-{2-[4-(4-chloro-2-fluorophenyl)piperazin-1-yl]phenyl}piperidine-4-sulfonamide]: 2.01 to 8 µM; for `Cc1nn(C)c(N2CCN(c3ccc(Cl)cc3F)CC2)c1NS(=O)(=O)c1ccc(S(=O)(=O)N(C)C)cc1` [Compound A-18, N1-(5-(4-(4-chloro-2-fluorophenyl)piperazin-1-yl)-1,3-dimethyl-1H-pyrazol-4-yl)-N4,N4-dimethylbenzene-1,4-disulfonamide]: no more than 2 µM.
`CN(C)S(=O)(=O)c1ccc(S(=O)(=O)Nc2ccccc2C2=CCN(c3ccc(Cl)cc3F)CC2)cc1` [Compound A-19, N1-(2-(1-(4-chloro-2-fluorophenyl)-1,2,3,6-tetrahydropyridin-4-yl)phenyl)-N4,N4-dimethylbenzene-1,4-disulfonamide] showed a concentration at half-maximal activity (AC50) of no more than 2 µM.
On to `O=S(=O)(Nc1ccccc1N1CCN(c2ccc(Cl)cc2F)CC1)c1ccccn1` [Compound A-20, N-{2-[4-(4-chloro-2-fluorophenyl)piperazin-1-yl]phenyl}pyridine-2-sulfonamide], for which the AC50 was no more than 2 µM.
Take `Cn1ccc(S(=O)(=O)Nc2ccccc2N2CCN(c3ccc(Cl)cc3F)CC2)n1` [Compound A-21, N-{2-[4-(4-chloro-2-fluorophenyl)piperazin-1-yl]phenyl}-1-methyl-1H-pyrazole-3-sulfonamide]: the AC50 is 2.01 to 8 µM.
Same read-out and setting: then `CN(C)S(=O)(=O)c1ccc(S(=O)(=O)Nc2ccccc2C2CCN(c3ccc(Cl)cc3F)CC2)cc1` [Compound A-22, N1-(2-(1-(4-chloro-2-fluorophenyl)piperidin-4-yl)phenyl)-N4,N4-dimethylbenzene-1,4-disulfonamide], with 2.01 to 8 µM; and `CN(C)S(=O)(=O)c1ccc(S(=O)(=O)Nc2ccccc2N2CCC(c3ccc(Cl)cc3F)CC2)cc1` [Compound A-23, N4-{2-[4-(4-chloro-2-fluorophenyl)piperidin-1-yl]phenyl}-N1,N1-dimethylbenzene-1,4-disulfonamide], with no more than 2 µM.
As for `CN(C)S(=O)(=O)c1ccc(S(=O)(=O)Nc2ccccc2N2[C@@H]3CC[C@H]2CN(c2ccc(Cl)cc2F)C3)cc1` [Compound A-25, N4-{2-[(1R,5S)-3-(4-chloro-2-fluorophenyl)-3,8-diazabicyclo[3.2.1]octan-8-yl]phenyl}-N1,N1-dimethylbenzene-1,4-disulfonamide], the AC50 is no more than 2 µM.
The compound `CN(C)S(=O)(=O)c1ccc(S(=O)(=O)Nc2ccccc2N2CC3CCC2CN3c2ccc(Cl)cc2F)cc1` (centres unmarked) [Compound A-26, N4-{2-[5-(4-chloro-2-fluorophenyl)-2,5-diazabicyclo[2.2.2]octan-2-yl]phenyl}-N1,N1-dimethylbenzene-1,4-disulfonamide] came in with an AC50 of no more than 2 µM.
Compound `CN(C)S(=O)(=O)c1ccc(S(=O)(=O)Nc2ccccc2N2C3CC2CN(c2ccc(Cl)cc2F)C3)cc1` [Compound A-27, N4-{2-[3-(4-chloro-2-fluorophenyl)-3,6-diazabicyclo[3.1.1]heptan-6-yl]phenyl}-N1,N1-dimethylbenzene-1,4-disulfonamide] came in with an AC50 of 2.01 to 8 µM.
Same read-out and setting: then `Cc1nn(C)c(C2=CCN(c3ccc(Cl)cc3F)CC2)c1NS(=O)(=O)c1ccc(S(=O)(=O)N(C)C)cc1` [Compound A-29, N1-(5-(1-(4-chloro-2-fluorophenyl)-1,2,3,6-tetrahydropyridin-4-yl)-1,3-dimethyl-1H-pyrazol-4-yl)-N4,N4-dimethylbenzene-1,4-disulfonamide], with no less than 10 µM.
As to `CN(C)S(=O)(=O)c1ccc(S(=O)(=O)Nc2ccccc2N2CC3CC(C2)N3c2ccc(Cl)cc2F)cc1` [Compound A-30, N4-{2-[6-(4-chloro-2-fluorophenyl)-3,6-diazabicyclo[3.1.1]heptan-3-yl]phenyl}-N1,N1-dimethylbenzene-1,4-disulfonamide], the AC50 was no more than 2 µM.
On the same count and under the same terms, the same measure for `CN(C)S(=O)(=O)c1ccc(S(=O)(=O)Nc2ccccc2N2CC3CC2CN3c2ccc(Cl)cc2F)cc1` (centres unmarked) [Compound A-31, N4-{2-[5-(4-chloro-2-fluorophenyl)-2,5-diazabicyclo[2.2.1]heptan-2-yl]phenyl}-N1,N1-dimethylbenzene-1,4-disulfonamide]: no more than 2 µM.
The same measure, in the same setting: the same measure for `CN(C)S(=O)(=O)c1ccc(S(=O)(=O)Nc2ccccc2N2CC=C(c3ccc(Cl)cc3F)CC2)cc1` [Compound A-32, N4-{2-[4-(4-chloro-2-fluorophenyl)-1,2,3,6-tetrahydropyridin-1-yl]phenyl}-N1,N1-dimethylbenzene-1,4-disulfonamide]: no more than 2 µM; for `Cc1nn(C)c(C2CCN(c3ccc(Cl)cc3F)CC2)c1NS(=O)(=O)c1ccc(S(=O)(=O)N(C)C)cc1` [Compound A-33, N1-(5-(1-(4-chloro-2-fluorophenyl)piperidin-4-yl)-1,3-dimethyl-1H-pyrazol-4-yl)-N4,N4-dimethylbenzene-1,4-disulfonamide]: no less than 10 µM; for `COc1cc(S(=O)(=O)Nc2ccccc2N2CCN(c3ccc(Cl)cc3F)CC2)ccn1` [Compound A-34, N-{2-[4-(4-chloro-2-fluorophenyl)piperazin-1-yl]phenyl}-2-methoxypyridine-4-sulfonamide]: no more than 2 µM.
On the same count and under the same terms, the same measure for `Cc1nocc1S(=O)(=O)Nc1ccccc1N1CCN(c2ccc(Cl)cc2F)CC1` [Compound A-35, N-{2-[4-(4-chloro-2-fluorophenyl)piperazin-1-yl]phenyl}-3-methyl-1,2-oxazole-4-sulfonamide]: no less than 10 µM.
In the case of `CN(C)S(=O)(=O)c1ccc(S(=O)(=O)Nc2nnc(N3CCN(c4ccc(Cl)cc4F)CC3)s2)cc1` [Compound A-36, N4-{5-[4-(4-chloro-2-fluorophenyl)piperazin-1-yl]-1,3,4-thiadiazol-2-yl}-N1,N1-dimethylbenzene-1,4-disulfonamide], the half-maximal activity concentration (AC50) is no more than 2 µM.
Same read-out and setting: the same measure for `Cc1nn(S(=O)(=O)c2ccc(S(=O)(=O)N(C)C)cc2)cc1C1=CCN(c2ccc(Cl)cc2F)CC1` [Compound A-37, 4-({4-[1-(4-chloro-2-fluorophenyl)-1,2,3,6-tetrahydropyridin-4-yl]-3-methyl-1H-pyrazol-1-yl}sulfonyl)-N,N-dimethylbenzene-1-sulfonamide]: 2.01 to 8 µM; for `Cc1nn(S(=O)(=O)c2ccc(S(=O)(=O)N(C)C)cc2)cc1C1CCN(c2ccc(Cl)cc2F)CC1` [Compound A-38, 4-({4-[1-(4-chloro-2-fluorophenyl)piperidin-4-yl]-3-methyl-1H-pyrazol-1-yl}sulfonyl)-N,N-dimethylbenzene-1-sulfonamide]: no more than 2 µM; for `Cc1nc(C2CCN(c3ccc(Cl)cc3F)CC2)cn1S(=O)(=O)c1ccc(S(=O)(=O)N(C)C)cc1` [Compound A-39, 4-((4-(1-(4-chloro-2-fluorophenyl)piperidin-4-yl)-2-methyl-1H-imidazol-1-yl)sulfonyl)-N,N-dimethylbenzenesulfonamide]: 2.01 to 8 µM.
Still for that read-out and setting: then `CN(C)S(=O)(=O)c1ccc(S(=O)(=O)Nc2nn(C)cc2C2CCN(c3ccccc3F)CC2)cc1` [Compound A-40, N1-(4-(1-(2-fluorophenyl)piperidin-4-yl)-1-methyl-1H-pyrazol-3-yl)-N4,N4-dimethylbenzene-1,4-disulfonamide], with 2.01 to 8 µM; and `CCOC(=O)c1ccc(S(=O)(=O)Nc2ccccc2N2CCC(c3ccc(Cl)cc3F)CC2)cc1` [Compound A-41, ethyl 4-({2-[4-(4-chloro-2-fluorophenyl)piperidin-1-yl]phenyl}sulfamoyl)benzoate], with no less than 10 µM.
On the same count and under the same terms, then `O=S(=O)(Nc1ccccc1N1CCC(c2ccc(Cl)cc2F)CC1)c1ccccc1` [Compound A-42, N-{2-[4-(4-chloro-2-fluorophenyl)piperidin-1-yl]phenyl}benzenesulfonamide], with no less than 10 µM; and `O=S(=O)(Nc1ccccc1N1CCN(c2ccc(Cl)cc2F)CC1)N1CCOCC1` [Compound A-43, N-{2-[4-(4-chloro-2-fluorophenyl)piperazin-1-yl]phenyl}morpholine-4-sulfonamide], with no more than 2 µM; and `CN(C)C(=O)c1ccc(S(=O)(=O)Nc2ccccc2N2CCC(c3ccc(Cl)cc3F)CC2)cc1` [Compound A-44, 4-({2-[4-(4-chloro-2-fluorophenyl)piperidin-1-yl]phenyl}sulfamoyl)-N,N-dimethylbenzamide], with no more than 2 µM.
`O=C(NC1CC1)c1ccc(S(=O)(=O)Nc2ccccc2N2CCC(c3ccc(Cl)cc3F)CC2)cc1` [Compound A-45, 4-({2-[4-(4-chloro-2-fluorophenyl)piperidin-1-yl]phenyl}sulfamoyl)-N-cyclopropylbenzamide] yielded an AC50 of 2.01 to 8 µM.
